Experimental data as given in patent publication US11000033B2, “Ketone or oxime compound, and herbicide” (NISSAN CHEMICAL CORPORATION, priority 2014, dated 2021).

What was measured:
Format in all cases: in vivo
Monochoria vaginalis [1] = experiment: Test Example 1: herbicidal activity, application before weed generation in submerged conditions (symbol C); settings: application herbicide amount 320 g/ha
Summary of the method: (§1)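 Weed control was rated three weeks after treatment on a 0–5 scale, from 5% or lower up to 90% or more. Pre-emergence water-surface application of diluted emulsion at a predetermined rate was made on the day of sowing, in flooded (4 cm water) pots containing rice seedlings, kept at 25–30 °C under glass.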

Digitaria ciliaris = experiment: Test Example 4: herbicidal effect by soil treatment (symbol F); settings: for F: Digitaria ciliaris, herbicidal effect grade: 320 g/ha; for F (Digitaria ciliaris) herbicidal effect grade: application herbicide amount 320 g/ha
Summary of the method: (§2)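 Seeds were sown in sterilized diluvial soil, covered with about 1.5 cm of soil, and the soil surface was sprayed with a water-diluted emulsion of the compound at a predetermined rate. Plants grew in a greenhouse at 25° C. to 30° C.; effects were scored visually 3 weeks after application.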

Amaranthus retroflexus = experiment: Test Example 5: herbicidal effect by foliage application, plastic box (symbol N); settings: 320 g/ha, 3 weeks after application
Summary of the method: (§3)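 Post-emergence spray; diluvial soil (sterilized), ~1.5 cm seed cover; greenhouse 25–30° C; 14-day-old plants; water-diluted emulsion at predetermined dose; visual score at 3 wk post-treatment.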

Avena fatua = experiment: Test Example 4: herbicidal effect by soil treatment (symbol I); settings: for I: Avena fatua, herbicidal effect grade: 320 g/ha; for I (Avena fatua) herbicidal effect grade: application herbicide amount 320 g/ha
Summary of the method: as §2

rapeseed = experiment: Test Example 5: effect on crop by foliage application, plastic box (symbol g); settings: 320 g/ha, 3 weeks after application
Summary of the method: (§4)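 Foliage-application test plants come from spot sowing in sterilized diluvial soil under a soil layer of about 1.5 cm, grown at 25° C. to 30° C. in a greenhouse.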

Abutilon theophrasti [2] = experiment: Test Example 4: herbicidal effect by soil treatment (symbol M); settings: for M: Abutilon theophrasti, herbicidal effect grade: 320 g/ha; for M (Abutilon theophrasti) herbicidal effect grade: application herbicide amount 320 g/ha
Summary of the method: as §2

[3] = system: Echinochloa oryzacola Vasing.; experiment: Test Example 2: herbicidal activity, application during weed generation in submerged conditions (symbol A); settings: Table 23; application herbicide amount 320 g/ha; grade 0-5 by criteria of Test Example 1
Summary of the method: (§5)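 Compound was applied as a water-diluted emulsion into the standing water of flooded pots (4 cm) once co-sown weeds reached one to two leaves. Greenhouse temperature was 25° C. to 30° C., soil was alluvial, and each species was rated visually after 3 weeks.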

Monochoria vaginalis [4] = experiment: Test Example 2: herbicidal activity, application during weed generation in submerged conditions (symbol C); settings: Table 23; application herbicide amount 320 g/ha; grade 0-5 by criteria of Test Example 1
Summary of the method: as §5

Scirpus juncoides = experiment: Test Example 2: herbicidal activity, application during weed generation in submerged conditions (symbol B); settings: Table 23; application herbicide amount 320 g/ha; grade 0-5 by criteria of Test Example 1
Summary of the method: as §5

rice = experiment: Test Example 4: effect on crop by soil treatment (symbol b); settings: for b: directly sowed rice plant, effect grade on crop: 320 g/ha; for b (directly sowed rice plant) effect on crop grade: application herbicide amount 320 g/ha
Summary of the method: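 Crop seed is sown in spots together with several weed species in a box of sterilized diluvial soil. It is covered by about 1.5 cm of soil and kept in a greenhouse held between 25° C. and 30° C.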

Chenopodium album = experiment: Test Example 4: herbicidal effect by soil treatment (symbol O); settings: for O: Chenopodium album, herbicidal effect grade: 320 g/ha; for O (Chenopodium album) herbicidal effect grade: application herbicide amount 320 g/ha
Summary of the method: as §2

[5] = system: Echinochloa oryzacola Vasing.; experiment: Test Example 1: herbicidal activity, application before weed generation in submerged conditions (symbol A); settings: application herbicide amount 320 g/ha
Summary of the method: as §1

Abutilon theophrasti [6] = experiment: Test Example 5: herbicidal effect by foliage application, plastic box (symbol M); settings: 320 g/ha, 3 weeks after application
Summary of the method: as §3

[7] = system: Echinochloa crus-galli var. crus-galli; experiment: Test Example 5: herbicidal effect by foliage application, plastic box (symbol H); settings: 320 g/ha, 3 weeks after application
Summary of the method: as §3

Alopecurus myosuroides = experiment: Test Example 4: herbicidal effect by soil treatment (symbol J); settings: for J: Alopecurus myosuroides, herbicidal effect grade: 320 g/ha; for J (Alopecurus myosuroides) herbicidal effect grade: application herbicide amount 320 g/ha
Summary of the method: as §2

beet = experiment: Test Example 5: effect on crop by foliage application, plastic box (symbol f); settings: 320 g/ha, 3 weeks after application
Summary of the method: as §4

SMILES | Herbicidal effect grade, C: Monochoria vaginalis (Monochoria vaginalis [1]) | F: Digitaria ciliaris, herbicidal effect grade (Digitaria ciliaris) | N: Amaranthus retroflexus, herbicidal effect (criteria 0-5) (Amaranthus retroflexus) | I: Avena fatua, herbicidal effect grade (Avena fatua) | g: rapeseed, effect on crop (criteria 0-5) (rapeseed) | Herbicidal effect grade, A: Echinochloa oryzacola Vasing. [3] | Herbicidal effect grade, C: Monochoria vaginalis (Monochoria vaginalis [4]) | Herbicidal effect grade, B: Scirpus juncoides (Scirpus juncoides) | Herbicidal effect grade, A: Echinochloa oryzacola Vasing. [5] | F (Digitaria ciliaris) herbicidal effect grade (Digitaria ciliaris) | N: Amaranthus retroflexus, herbicidal effect grade (Amaranthus retroflexus) | I (Avena fatua) herbicidal effect grade (Avena fatua) | g: rapeseed, effect on crop grade (rapeseed) | M (Abutilon theophrasti) herbicidal effect grade (Abutilon theophrasti [2]) | b (directly sowed rice plant) effect on crop grade (rice) | O (Chenopodium album) herbicidal effect grade (Chenopodium album) | M: Abutilon theophrasti, herbicidal effect grade (Abutilon theophrasti [6]) | H: Echinochloa crus-galli var. crus-galli, herbicidal effect grade [7] | J (Alopecurus myosuroides) herbicidal effect grade (Alopecurus myosuroides) | f: beet, effect on crop grade (beet) | further results
CCCC=CC(=O)OC1=C(c2c(C)cc(C)cc2C)C(=O)C(CC(C)=NOC)C1 (centres unmarked) [1-090] | 1 (Herbicidal ratio of 5% or higher and lower than 20%) | 5 (Herbicidal ratio of 90% or more (almost completely withered)) | 1 (Herbicidal ratio of 5% or higher and lower than 20%) | 3 (Herbicidal ratio of 40% or higher and lower than 70%) | 4 (Herbicidal ratio of 70% or higher and lower than 90%) | 5 (Herbicidal ratio of 90% or more (almost completely withered)) | 3 (Herbicidal ratio of 40% or higher and lower than 70%) | 5 (Herbicidal ratio of 90% or more (almost completely withered)) | 5 (Herbicidal ratio of 90% or more (almost completely withered)) |  |  |  |  |  |  |  |  |  |  |  | M: Abutilon theophrasti, herbicidal effect grade (Abutilon theophrasti [2]): 4 (Herbicidal ratio of 70% or higher and lower than 90%); b: directly sowed rice plant, effect grade on crop (rice): 5 (Herbicidal ratio of 90% or more (almost completely withered)); O: Chenopodium album, herbicidal effect grade (Chenopodium album): 0 (Herbicidal ratio of 5% or lower (almost no effect)); M: Abutilon theophrasti, herbicidal effect (criteria 0-5) (Abutilon theophrasti [6]): 4 (Herbicidal ratio of 70% or higher and lower than 90%); H: Echinochloa crus-galli var. crus-galli, herbicidal effect (criteria 0-5) [7]: 5 (Herbicidal ratio of 90% or more (almost completely withered)); J: Alopecurus myosuroides, herbicidal effect grade (Alopecurus myosuroides): 5 (Herbicidal ratio of 90% or more (almost completely withered)); f: beet, effect on crop (criteria 0-5) (beet): 0 (Herbicidal ratio of 5% or lower (almost no effect))
CC(CC1CC(O)=C(c2c(C)cc(C)cc2C)C1=O)=NO (centres unmarked) [1-058] | 0 (Herbicidal ratio of 5% or lower (almost no effect)) |  |  |  |  | 5 (Herbicidal ratio of 90% or more (almost completely withered)) | 0 (Herbicidal ratio of 5% or lower (almost no effect)) | 0 (Herbicidal ratio of 5% or lower (almost no effect)) | 5 (Herbicidal ratio of 90% or more (almost completely withered)) | 5 (Herbicidal ratio of 90% or more (almost completely withered)) | 1 (Herbicidal ratio of 5% or higher and lower than 20%) | 1 (Herbicidal ratio of 5% or higher and lower than 20%) | 4 (Herbicidal ratio of 70% or higher and lower than 90%) | 4 (Herbicidal ratio of 70% or higher and lower than 90%) | 5 (Herbicidal ratio of 90% or more (almost completely withered)) | 0 (Herbicidal ratio of 5% or lower (almost no effect)) | 4 (Herbicidal ratio of 70% or higher and lower than 90%) | 5 (Herbicidal ratio of 90% or more (almost completely withered)) | 5 (Herbicidal ratio of 90% or more (almost completely withered)) | 0 (Herbicidal ratio of 5% or lower (almost no effect)) | 
CCCCCCCON=C(C)CC1CC(O)=C(c2c(C)cc(C)cc2C)C1=O (centres unmarked) [1-054] | 0 (Herbicidal ratio of 5% or lower (almost no effect)) |  |  |  |  | 3 (Herbicidal ratio of 40% or higher and lower than 70%) | 0 (Herbicidal ratio of 5% or lower (almost no effect)) | 0 (Herbicidal ratio of 5% or lower (almost no effect)) | 5 (Herbicidal ratio of 90% or more (almost completely withered)) | 5 (Herbicidal ratio of 90% or more (almost completely withered)) | 0 (Herbicidal ratio of 5% or lower (almost no effect)) | 0 (Herbicidal ratio of 5% or lower (almost no effect)) | 3 (Herbicidal ratio of 40% or higher and lower than 70%) | 0 (Herbicidal ratio of 5% or lower (almost no effect)) | 5 (Herbicidal ratio of 90% or more (almost completely withered)) | 0 (Herbicidal ratio of 5% or lower (almost no effect)) | 0 (Herbicidal ratio of 5% or lower (almost no effect)) | 4 (Herbicidal ratio of 70% or higher and lower than 90%) | 1 (Herbicidal ratio of 5% or higher and lower than 20%) | 0 (Herbicidal ratio of 5% or lower (almost no effect)) | 
COCCOC1=C(c2c(C)cc(C)cc2C)C(=O)C(CC(C)=NOC)C1 (centres unmarked) [1-037] | 0 (Herbicidal ratio of 5% or lower (almost no effect)) |  |  |  |  | 0 (Herbicidal ratio of 5% or lower (almost no effect)) | 0 (Herbicidal ratio of 5% or lower (almost no effect)) | 0 (Herbicidal ratio of 5% or lower (almost no effect)) | 0 (Herbicidal ratio of 5% or lower (almost no effect)) | 0 (Herbicidal ratio of 5% or lower (almost no effect)) | 0 (Herbicidal ratio of 5% or lower (almost no effect)) | 0 (Herbicidal ratio of 5% or lower (almost no effect)) | 0 (Herbicidal ratio of 5% or lower (almost no effect)) | 0 (Herbicidal ratio of 5% or lower (almost no effect)) | 0 (Herbicidal ratio of 5% or lower (almost no effect)) | 0 (Herbicidal ratio of 5% or lower (almost no effect)) | 0 (Herbicidal ratio of 5% or lower (almost no effect)) | 0 (Herbicidal ratio of 5% or lower (almost no effect)) | 0 (Herbicidal ratio of 5% or lower (almost no effect)) | 0 (Herbicidal ratio of 5% or lower (almost no effect)) | 
CON=C(C)CC1CC(OC(=O)COCc2ccccc2)=C(c2c(C)cc(C)cc2C)C1=O (centres unmarked) [1-094] | 1 (Herbicidal ratio of 5% or higher and lower than 20%) | 5 (Herbicidal ratio of 90% or more (almost completely withered)) | 2 (Herbicidal ratio of 20% or higher and lower than 40%) | 3 (Herbicidal ratio of 40% or higher and lower than 70%) | 4 (Herbicidal ratio of 70% or higher and lower than 90%) | 5 (Herbicidal ratio of 90% or more (almost completely withered)) | 4 (Herbicidal ratio of 70% or higher and lower than 90%) | 5 (Herbicidal ratio of 90% or more (almost completely withered)) | 5 (Herbicidal ratio of 90% or more (almost completely withered)) |  |  |  |  |  |  |  |  |  |  |  | M: Abutilon theophrasti, herbicidal effect grade (Abutilon theophrasti [2]): 2 (Herbicidal ratio of 20% or higher and lower than 40%); b: directly sowed rice plant, effect grade on crop (rice): 5 (Herbicidal ratio of 90% or more (almost completely withered)); O: Chenopodium album, herbicidal effect grade (Chenopodium album): 0 (Herbicidal ratio of 5% or lower (almost no effect)); M: Abutilon theophrasti, herbicidal effect (criteria 0-5) (Abutilon theophrasti [6]): 4 (Herbicidal ratio of 70% or higher and lower than 90%); H: Echinochloa crus-galli var. crus-galli, herbicidal effect (criteria 0-5) [7]: 5 (Herbicidal ratio of 90% or more (almost completely withered)); J: Alopecurus myosuroides, herbicidal effect grade (Alopecurus myosuroides): 5 (Herbicidal ratio of 90% or more (almost completely withered)); f: beet, effect on crop (criteria 0-5) (beet): 0 (Herbicidal ratio of 5% or lower (almost no effect))
